pIC50: −log10 of the molar value.
Assays:
JMJD2A (KDM4A) = target: T1, JMJD2A (KDM4A) (Homo sapiens, UniProt O75164); parameters: method as in PMID 26682036; conditions: cited from earlier work
T1 sequence (O75164 1-1064): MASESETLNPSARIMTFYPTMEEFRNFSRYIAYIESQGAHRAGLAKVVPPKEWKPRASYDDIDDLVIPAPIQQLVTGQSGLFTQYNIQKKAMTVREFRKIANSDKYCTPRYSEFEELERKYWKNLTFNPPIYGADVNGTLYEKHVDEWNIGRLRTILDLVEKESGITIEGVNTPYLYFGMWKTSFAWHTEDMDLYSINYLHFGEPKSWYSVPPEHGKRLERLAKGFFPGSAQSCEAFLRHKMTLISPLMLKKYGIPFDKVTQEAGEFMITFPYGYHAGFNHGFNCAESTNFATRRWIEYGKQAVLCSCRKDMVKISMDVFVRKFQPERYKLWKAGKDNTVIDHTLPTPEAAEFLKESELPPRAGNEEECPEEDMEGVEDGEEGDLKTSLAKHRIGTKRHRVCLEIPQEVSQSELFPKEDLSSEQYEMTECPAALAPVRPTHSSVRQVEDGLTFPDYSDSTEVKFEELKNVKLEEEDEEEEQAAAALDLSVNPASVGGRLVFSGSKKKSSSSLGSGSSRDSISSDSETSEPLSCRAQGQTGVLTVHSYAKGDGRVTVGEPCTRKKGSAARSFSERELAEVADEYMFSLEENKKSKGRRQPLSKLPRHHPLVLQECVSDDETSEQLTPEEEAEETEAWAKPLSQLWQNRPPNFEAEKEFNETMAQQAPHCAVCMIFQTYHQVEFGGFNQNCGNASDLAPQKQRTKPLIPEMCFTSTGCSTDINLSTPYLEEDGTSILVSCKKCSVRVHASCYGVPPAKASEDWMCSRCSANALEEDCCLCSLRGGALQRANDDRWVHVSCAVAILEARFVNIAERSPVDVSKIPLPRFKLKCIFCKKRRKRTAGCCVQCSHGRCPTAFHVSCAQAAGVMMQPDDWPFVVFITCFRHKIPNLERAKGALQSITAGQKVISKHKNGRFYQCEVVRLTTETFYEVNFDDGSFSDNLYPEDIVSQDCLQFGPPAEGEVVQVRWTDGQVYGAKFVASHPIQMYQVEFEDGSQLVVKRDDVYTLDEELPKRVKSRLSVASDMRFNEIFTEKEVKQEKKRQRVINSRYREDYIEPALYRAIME

JARID1C (KDM5C) = JARID1C (KDM5C) (Homo sapiens, UniProt P41229); parameters: method as in PMID 26682036; conditions: cited from earlier work
FIH = FIH (Homo sapiens, UniProt Q9NWT6); experiment: FIH liquid chromatography-mass spectrometry assay (RapidFire)
Experimental: After 15 minutes, the enzyme reaction was stopped by the addition of 4 ml 10% formic acid and the reaction mixture transferred to a RapidFire RF360 high throughput sampling robot. Samples were aspirated under vacuum onto a C4 Solid Phase Extraction (SPE) cartridge. […] Ion chromatogram data was extracted for the non-hydroxylated peptide substrate and the hydroxylated peptide product and peak area data for extracted ion chromatograms were integrated using RapidFire Integrator software. Percentage conversion of substrate to product was calculated in Microsoft Excel and IC50 values were calculated using Graphpad Prism 5.

HIF target genes = experiment: qRT-PCR of HIF target genes in mouse brain; assay type: in vivo, C57BL/6 mice; conditions: 1 h treatment
Experimental: All animal experiments were performed on male C57BL/6 mice aged 3 months (purchased from Harlan Laboratories, Blackthorn) housed in specific pathogen free conditions with free access to water and standard chow. Mice were injected intraperitonially with the inhibitor (dissolved in Hanks’ buffered saline solution, pH 7.0, 5% DMSO final) or vehicle at the indicated doses for the indicated time as previously described. Tissues from treated mice were harvested and ‘snap frozen’ with liquid nitrogen before being stored at -80°C. For immunoblotting, a portion of the tissues was removed, weighed and homogenised in urea/SDS buffer before being analysed by immunoblotting with HIF1α rabbit polyclonal antibody (10006421, Cayman Chemical, 1:1000) or HIF2α rabbit polyclonal antibody (PM9 [27], 1:1000). […]
Genomic DNA were removed from total RNA preparation using the TURBO DNA-free kit (AM1907, Life Technologies) according to manufacturer’s protocol. […] Relative quantifications were calculated using the ∆∆Ct method normalised to β-actin. […]
To investigate whether the induction of HIFα in the mouse brain has an effect on HIF target genes, we performed quantitative real-time PCR (qRT-PCR) analyses on HIF target genes (including those involved in angiogenesis, i.e. Vegfa, Adm and Il6).

Sequence of FIH (Q9NWT6 whole entry): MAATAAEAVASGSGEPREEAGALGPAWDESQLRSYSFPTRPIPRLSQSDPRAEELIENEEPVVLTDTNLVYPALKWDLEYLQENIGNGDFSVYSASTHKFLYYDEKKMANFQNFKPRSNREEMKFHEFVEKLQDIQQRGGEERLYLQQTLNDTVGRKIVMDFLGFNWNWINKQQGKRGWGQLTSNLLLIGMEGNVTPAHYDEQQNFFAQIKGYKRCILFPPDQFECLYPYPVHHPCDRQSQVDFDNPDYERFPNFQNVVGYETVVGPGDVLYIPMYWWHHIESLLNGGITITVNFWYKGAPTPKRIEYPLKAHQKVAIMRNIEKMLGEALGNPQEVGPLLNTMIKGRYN
Sequence of JARID1C (KDM5C) (P41229 whole entry): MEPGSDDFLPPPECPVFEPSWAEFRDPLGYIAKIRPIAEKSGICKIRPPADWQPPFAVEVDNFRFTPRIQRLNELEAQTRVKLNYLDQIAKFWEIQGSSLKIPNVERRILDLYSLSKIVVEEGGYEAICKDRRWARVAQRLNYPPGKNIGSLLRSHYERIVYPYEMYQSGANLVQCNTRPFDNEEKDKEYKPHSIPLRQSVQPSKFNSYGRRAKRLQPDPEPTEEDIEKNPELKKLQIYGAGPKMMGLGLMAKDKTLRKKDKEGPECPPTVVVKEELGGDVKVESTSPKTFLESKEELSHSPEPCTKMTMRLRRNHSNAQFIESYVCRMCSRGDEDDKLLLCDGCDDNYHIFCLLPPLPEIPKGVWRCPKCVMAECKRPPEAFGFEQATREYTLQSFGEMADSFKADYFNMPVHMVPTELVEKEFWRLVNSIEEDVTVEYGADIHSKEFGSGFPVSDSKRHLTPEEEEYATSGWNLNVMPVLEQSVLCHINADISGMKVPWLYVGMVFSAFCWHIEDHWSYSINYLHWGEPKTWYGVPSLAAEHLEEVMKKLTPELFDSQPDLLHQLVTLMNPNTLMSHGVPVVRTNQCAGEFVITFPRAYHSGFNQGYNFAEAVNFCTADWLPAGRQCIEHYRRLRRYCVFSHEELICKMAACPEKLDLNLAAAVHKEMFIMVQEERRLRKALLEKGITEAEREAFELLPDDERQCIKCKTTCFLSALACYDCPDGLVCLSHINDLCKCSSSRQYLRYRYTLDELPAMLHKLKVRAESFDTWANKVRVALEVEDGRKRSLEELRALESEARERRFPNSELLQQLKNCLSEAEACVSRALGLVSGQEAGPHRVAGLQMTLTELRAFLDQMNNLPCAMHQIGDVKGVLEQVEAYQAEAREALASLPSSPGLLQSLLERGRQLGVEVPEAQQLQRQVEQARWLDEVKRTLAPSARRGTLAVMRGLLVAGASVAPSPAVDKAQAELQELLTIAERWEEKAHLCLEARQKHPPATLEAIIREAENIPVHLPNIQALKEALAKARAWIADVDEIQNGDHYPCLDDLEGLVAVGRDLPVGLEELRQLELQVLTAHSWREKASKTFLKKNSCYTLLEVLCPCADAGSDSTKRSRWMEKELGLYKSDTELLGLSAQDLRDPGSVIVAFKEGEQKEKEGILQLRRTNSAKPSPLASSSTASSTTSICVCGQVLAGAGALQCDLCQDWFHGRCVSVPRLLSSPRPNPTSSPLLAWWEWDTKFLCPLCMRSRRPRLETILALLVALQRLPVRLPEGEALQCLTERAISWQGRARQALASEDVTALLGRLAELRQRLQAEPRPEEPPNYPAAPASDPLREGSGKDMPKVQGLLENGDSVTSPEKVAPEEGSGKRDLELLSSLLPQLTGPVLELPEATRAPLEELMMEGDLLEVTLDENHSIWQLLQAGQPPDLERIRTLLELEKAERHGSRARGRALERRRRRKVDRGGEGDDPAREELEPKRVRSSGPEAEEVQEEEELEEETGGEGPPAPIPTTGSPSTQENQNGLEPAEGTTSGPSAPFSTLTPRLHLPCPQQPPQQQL

Row | SMILES | pIC50 (JMJD2A (KDM4A)) | pIC50 (JARID1C (KDM5C)) | pIC50 (FIH) | mRNA levels of HIF target genes Bnip3, Ldha and Il6 in mouse brain (HIF target genes) | mRNA levels of HIF target genes Epo, Vegfa and Adm in mouse brain (HIF target genes)
1 | O=C(O)CNC(=O)c1c(O)c2ccccc2n(Cc2ccccc2)c1=O [IOX2] | 4.00 | 3.80 | < 4.00 |  | 
2 | CC(C)(C)OC(=O)c1ccc(-n2[nH]cc(-n3ccnn3)c2=O)nc1 [IOX4, t-Butyl 6-(5-oxo-4-(1H-1,2,3-triazol-1-yl)-2,5-dihydro-1H-pyrazol-1-yl)nicotinate] |  |  |  | remain unaffected | induced in a dose-dependent manner

Reference: PMC4492579, “Potent and Selective Triazole-Based Inhibitors of the Hypoxia-Inducible Factor Prolyl-Hydroxylases with Activity in the Murine Brain” (PLoS ONE, 2015)
